Assay results from patent EP0012543A1, “Compositions containing 1,3-dioxolanes as emollients” (IMPERIAL CHEMICAL INDUSTRIES PLC, priority 1978, dated 1980).

System: skin
Experiment: Evaluation of emollients: test lotion rated by a panel
Assay type: in vivo, persons
Protocol: The following basic composition is prepared:
The emollient to be tested is stirred with the other ingredients of the oil phase while heating to 70°C. Meanwhile, ingredients of the water phase are stirred and heated to 72°C. The water phase is then added gradually to the stirred oil phase, and the total mixture is stirred while it cools to room temperature. The emulsion (lotion or cream) is allowed to age for 48 hours at room temperature before evaluation.
For evaluation the subject applies a small amount of the lotion to the inner arm, rubs it into the skin and rates five characteristics: ease of application, moistness, smoothness, greasiness and tackiness. Numerical values are given as follows: poor = 0, average or "not sure" = 1, and good = 2. This is done by an experienced panel of 10 persons and ratings for each emollient are the mean for the 10 subjects. With this system, the highest possible rating is 10; the average emollient has a rating of 5; and the worst score is zero. Most of the emollients of the present invention have ratings well above 5.
Specific examples of acetals of fatty aldehydes are listed following under the name of the polyol. The aldehyde in each case was the mixed C13 and C15 aldehyde used in Example 1.

[1] = 0-10 scale, five characteristics (ease of application, moistness, smoothness, greasiness, tackiness) each rated 0-2, mean of 10 subjects, 7.0 parts emollient in lotion aged 48 hours, rubbed into inner arm

| Structure (SMILES) | Emollient Rating [1] | Emollient Rating (in vivo) |
| --- | --- | --- |
| CC(O)CO (centres unmarked) [1,2-Propylene glycol] | 8.1 |  |
| OCCCO [1,3-Propanediol] | 6.3 |  |
| OCCO [Ethylene glycol] |  | 8.6 |
| OCC(O)CO [Glycerol] | 5.8 |  |
| OCC(CO)(CO)CO [Pentaerythritol] | 6.3 |  |
